In patent US12685312B2, “Sulfonamide apyrase inhibitors” (Texas Crop Science, Inc., priority 2022, dated 2026):

test system: apyrase; assay: Screen for apyrase inhibitors (Method 1, in vitro phosphate-release absorbance assay); type: biochemical; conditions: inhibitor conc at 1 mM stock, 1 hr room temperature, absorbance 630 nm; rounded average of two assay results
Summary of the method: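 Phosphate-release colorimetric assay (Windsor method) in 60 mM Hepes, 3 mM MgCl2, 3 mM CaCl2, 3 mM ATP, pH 6.5, with compound or DMSO control added. Released phosphate developed with ammonium molybdate and ascorbic acid/TCA, then stopped with citrate/acetic acid.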

Compound	% Inhibition of Apyrase
O=C(Nc1cc2c(cc1Cl)OCO2)c1ccc(Cl)c(S(=O)(=O)N2CCc3ccccc32)c1 [I-496, 4-chloro-N-(6-chlorobenzo[d][1,3]dioxol-5-yl)-3-(indolin-1-ylsulfonyl)benzamide]	57%
Cc1ccc(F)c(NC(=O)c2cccc(S(=O)(=O)N3c4ccccc4CC3C)c2)c1 (stereo not drawn) [I-497, N-(2-fluoro-5-methylphenyl)-3-((2-methylindolin-1-yl)sulfonyl)benzamide]	57%
O=C(c1cccc(S(=O)(=O)N2CCc3ccccc32)c1)N1CCCc2ccccc21 [I-498, (3,4-dihydroquinolin-1(2H)-yl)(3-(indolin-1-ylsulfonyl)phenyl)methanone]	57%
COc1ccc(S(=O)(=O)N2CCc3ccccc32)cc1C(=O)Nc1cccc(C)c1 [I-499, 5-(indolin-1-ylsulfonyl)-2-methoxy-N-(m-tolyl)benzamide]	57%
COc1cccc(NC(=O)c2ccc(Cl)c(S(=O)(=O)N3CCc4ccccc43)c2)c1 [I-500, 4-chloro-3-(indolin-1-ylsulfonyl)-N-(3-methoxyphenyl)benzamide]	57%
Cc1ccc(NC(=O)c2cccc(S(=O)(=O)N3CCc4ccccc43)c2)cc1 [I-501, 3-(indolin-1-ylsulfonyl)-N-(p-tolyl)benzamide]	57%
Cc1ccc(NC(=O)c2cccc(S(=O)(=O)N(C)c3ccc(C)cc3)c2)cc1 [I-502, 3-(N-methyl-N-(p-tolyl)sulfamoyl)-N-(p-tolyl)benzamide]	57%
O=C(Nc1ccc(Cl)cc1)c1cccc(S(=O)(=O)N2CCc3ccccc32)c1 [I-503, N-(4-chlorophenyl)-3-(indolin-1-ylsulfonyl)benzamide]	57%
Cc1ccc(N(C)S(=O)(=O)c2cccc(C(=O)Nc3ccc4c(c3)CCC4)c2)cc1 [I-504, N-(2,3-dihydro-1H-inden-5-yl)-3-(N-methyl-N-(p-tolyl)sulfamoyl)benzamide]	57%
COc1ccc(S(=O)(=O)N2CCc3ccccc32)cc1C(=O)Nc1ccc(C(F)(F)F)cc1 [I-505, 5-(indolin-1-ylsulfonyl)-2-methoxy-N-(4-(trifluoromethyl)phenyl)benzamide]	57%
CCOC(=O)c1c(NC(=O)c2cccc(S(=O)(=O)Nc3ccc(Cl)cc3)c2)sc2c1CCCC2 [I-506, ethyl 2-(3-(N-(4-chlorophenyl)sulfamoyl)benzamido)-4,5,6,7-tetrahydrobenzo[b]thiophene-3-carboxylate]	57%
CCOC(=O)c1c(NC(=O)c2cccc(S(=O)(=O)Nc3cccc(Cl)c3)c2)sc2c1CCCC2 [I-507, ethyl 2-(3-(N-(3-chlorophenyl)sulfamoyl)benzamido)-4,5,6,7-tetrahydrobenzo[b]thiophene-3-carboxylate]	57%
Cc1ccc(NS(=O)(=O)c2cccc(C(=O)Nc3c(C)cc(C)cc3C)c2)c(C)c1 [I-508, 3-(N-(2,4-dimethylphenyl)sulfamoyl)-N-mesitylbenzamide]	57%
COc1ccc2c(c1)CCCN2C(=O)c1cccc(S(=O)(=O)N2CCc3ccccc32)c1 [I-509, (3-(indolin-1-ylsulfonyl)phenyl)(6-methoxy-3,4-dihydroquinolin-1(2H)-yl)methanone]	56%
Cc1cccc2c1N(C(=O)c1cccc(S(=O)(=O)N3CCc4ccccc43)c1)CCC2 [I-510, (3-(indolin-1-ylsulfonyl)phenyl)(8-methyl-3,4-dihydroquinolin-1(2H)-yl)methanone]	56%
COc1ccc(S(=O)(=O)N2CCc3ccccc32)cc1C(=O)Nc1ccc2c(c1)OCO2 [I-511, N-(benzo[d][1,3]dioxol-5-yl)-5-(indolin-1-ylsulfonyl)-2-methoxybenzamide]	56%
O=C(Nc1ccc(F)cc1)c1cccc(S(=O)(=O)N2CCc3ccccc32)c1 [I-512, N-(4-fluorophenyl)-3-(indolin-1-ylsulfonyl)benzamide]	56%
O=C(Nc1ccc(F)cc1)c1ccc(Cl)c(S(=O)(=O)N2CCc3ccccc32)c1 [I-513, 4-chloro-N-(4-fluorophenyl)-3-(indolin-1-ylsulfonyl)benzamide]	56%
COc1ccc(NC(=O)c2cccc(S(=O)(=O)N(C)c3ccc(OC)cc3)c2)cc1 [I-514, N-(4-methoxyphenyl)-3-(N-(4-methoxyphenyl)-N-methylsulfamoyl)benzamide]	56%
O=C(Nc1cccc(Cl)c1)c1cccc(S(=O)(=O)N2CCc3ccccc32)c1 [I-515, N-(3-chlorophenyl)-3-(indolin-1-ylsulfonyl)benzamide]	56%
C=CCN(c1ccccc1Cl)S(=O)(=O)c1cc(C(=O)N2CCc3ccccc32)ccc1Cl [I-516, N-allyl-2-chloro-N-(2-chlorophenyl)-5-(indoline-1-carbonyl)benzenesulfonamide]	56%

Compound	% Inhibition of Apyrase
Cc1ccc(F)cc1NC(=O)c1cccc(S(=O)(=O)N2CCc3ccccc32)c1 [I-517, N-(5-fluoro-2-methylphenyl)-3-(indolin-1-ylsulfonyl)benzamide]	56%
Cc1cccc(NC(=O)c2cc(S(=O)(=O)Nc3cccc(C)c3)ccc2Cl)c1 [I-518, 2-chloro-N-(m-tolyl)-5-(N-(m-tolyl)sulfamoyl)benzamide]	56%
O=C(Nc1ccc(Cl)cc1Cl)c1cccc(S(=O)(=O)Nc2ccc(Cl)cc2)c1 [I-519, 3-(N-(4-chlorophenyl)sulfamoyl)-N-(2,4-dichlorophenyl)benzamide]	56%
COc1ccc(Cl)cc1NS(=O)(=O)c1cccc(C(=O)N2CCc3ccccc32)c1 [I-520, N-(5-chloro-2-methoxyphenyl)-3-(indoline-1-carbonyl)benzenesulfonamide]	56%
O=C(c1cccc(S(=O)(=O)Nc2ccc(OCc3ccccc3)cc2)c1)N1CCc2ccccc21 [I-521, N-(4-(benzyloxy)phenyl)-3-(indoline-1-carbonyl)benzenesulfonamide]	56%
CC1Cc2ccccc2N1S(=O)(=O)c1cccc(C(=O)Nc2ccc3c(c2)OCO3)c1 (stereo not drawn) [I-522, N-(benzo[d][1,3]dioxol-5-yl)-3-((2-methylindolin-1-yl)sulfonyl)benzamide]	55%
O=C(Nc1ccc2c(c1)OCCO2)c1cccc(S(=O)(=O)N2CCc3ccccc32)c1 [I-523, N-(2,3-dihydrobenzo[b][1,4]dioxin-6-yl)-3-(indolin-1-ylsulfonyl)benzamide]	55%
O=C(Nc1ccc2c(c1)OCCO2)c1ccc(Cl)c(S(=O)(=O)N2CCc3ccccc32)c1 [I-524, 4-chloro-N-(2,3-dihydrobenzo[b][1,4]dioxin-6-yl)-3-(indolin-1-ylsulfonyl)benzamide]	55%
COc1ccc(S(=O)(=O)N2CCc3ccccc32)cc1C(=O)Nc1cccc(Br)c1 [I-525, N-(3-bromophenyl)-5-(indolin-1-ylsulfonyl)-2-methoxybenzamide]	55%
CC1Cc2ccccc2N1S(=O)(=O)c1cccc(C(=O)Nc2ccc(S(=O)(=O)N(C)C)cc2)c1 (stereo not drawn) [I-526, N-(4-(N,N-dimethylsulfamoyl)phenyl)-3-((2-methylindolin-1-yl)sulfonyl)benzamide]	55%
O=C(Nc1cccc(S(=O)(=O)N2CCOCC2)c1)c1cccc(S(=O)(=O)N2CCc3ccccc32)c1 [I-527, 3-(indolin-1-ylsulfonyl)-N-(3-(morpholinosulfonyl)phenyl)benzamide]	55%
CN(c1ccc(F)cc1)S(=O)(=O)c1ccc(Cl)c(C(=O)Nc2ccc(F)c(Cl)c2)c1 [I-528, 2-chloro-N-(3-chloro-4-fluorophenyl)-5-(N-(4-fluorophenyl)-N-methylsulfamoyl)benzamide]	55%
NS(=O)(=O)c1cccc(NC(=O)c2cccc(S(=O)(=O)N3CCc4ccccc43)c2)c1 [I-529, 3-(indolin-1-ylsulfonyl)-N-(3-sulfamoylphenyl)benzamide]	55%
COc1cc(OC)c(NS(=O)(=O)c2cc(C(=O)Nc3ccc(OC(F)(F)F)cc3)ccc2C)cc1Cl [I-530, 3-(N-(5-chloro-2,4-dimethoxyphenyl)sulfamoyl)-4-methyl-N-(4-(trifluoromethoxy)phenyl)benzamide]	55%
O=C(Nc1ccc2c(c1)OC1(CCCC1)O2)c1cccc(S(=O)(=O)Nc2ccc3c(c2)OCO3)c1 [I-531, 3-(N-(benzo[d][1,3]dioxol-5-yl)sulfamoyl)-N-(spiro[benzo[d][1,3]dioxole-2,1′-cyclopentan]-5-yl)benzamide]	55%
N#Cc1cccc(NC(=O)c2cccc(S(=O)(=O)Nc3cc(C(F)(F)F)ccc3Cl)c2)c1 [I-532, 3-(N-(2-chloro-5-(trifluoromethyl)phenyl)sulfamoyl)-N-(3-cyanophenyl)benzamide]	55%
CC1Cc2ccccc2N1C(=O)c1cccc(S(=O)(=O)Nc2ccccc2F)c1 (stereo not drawn) [I-533, N-(2-fluorophenyl)-3-(2-methylindoline-1-carbonyl)benzenesulfonamide]	54%
CC1Cc2ccccc2N1S(=O)(=O)c1cccc(C(=O)Nc2ccccc2C(C)(C)C)c1 (stereo not drawn) [I-534, N-(2-(tert-butyl)phenyl)-3-((2-methylindolin-1-yl)sulfonyl)benzamide]	54%
O=C(Nc1ccc(-n2cnnn2)cc1)c1cccc(S(=O)(=O)N2CCc3ccccc32)c1 [I-535, N-(4-(1H-tetrazol-1-yl)phenyl)-3-(indolin-1-ylsulfonyl)benzamide]	54%
CC1Cc2ccccc2N1S(=O)(=O)c1cccc(C(=O)Nc2ccc3c(c2)OCCO3)c1 (stereo not drawn) [I-536, N-(2,3-dihydrobenzo[b][1,4]dioxin-6-yl)-3-((2-methylindolin-1-yl)sulfonyl)benzamide]	54%
O=C(Nc1cccc(F)c1)c1ccc(Cl)c(S(=O)(=O)N2CCc3ccccc32)c1 [I-537, 4-chloro-N-(3-fluorophenyl)-3-(indolin-1-ylsulfonyl)benzamide]	54%
